# Experimental data: US3954985A, “Method for inhibiting bacterial growth with certain selected 3-chloro-tetrahydro-1,3-oxazines or oxazolidines” (INTERx Research Corporation, priority 1975, dated 1976)
# “And” between values parts separate entries of the source, which are not always exact repeats. Identical values can stand only once.
# Assays:
# 6501 = experiment: Bactericidal endpoint (time for complete sterilization), 6501; assay type: cell-based
# Source text: (§1) The procedure employed to determine the antibacterial activity of 3-chloro-2,2,4,4-tetramethyl-tetrahydro1,3-oxazolidine and 3-chloro-2,2-[spiro-1'-methyl-4'-piperidinyl]-4,4-dimethyl-1,3-oxazolidinewas based primarily on a modification of the serial dilution method of analysis. However, instead of determining the minimum inhibitory concentration parameters for the compound investigated, applicants alternatively chose to determine the bactericidal endpoint for a given concentration of the compound investigated. Consequently, applicants' studies were established to determine the time required for complete sterilization of the micro-organism tested, when exposed to a given concentration of the compound investigated.
# (§2) A stock solution of each compound identified above was prepared using an appropriate buffered solution.
# (§3) For screening in the absence of a denaturing agent (e.g., horse serum) an equal volume of distilled water and the resulting solution was subjected to the screen.
# (§4) For screening in the presence of a denaturing agent, a volume of the stock solution was diluted using an equal volume of 10% horse serum. When necessary, the final solution was adjusted to the desired pH using 1N HCl and the solution was permitted to stand at room temperature for thirty minutes prior to the screening procedure.
# (§5) To 5 ml of the stock solution being evaluated, there was added 0.2 ml of an overnight broth culture containing the particular micro-organism being investigated (see above). At time intervals of 0.5, 1, 2, 3, 4, 5, . . . minutes, a loop of this suspension was subcultured into 5 ml of a sterile nutrient broth. All the samples were then incubated at 37°C for seven days with daily observation for evidence of bacterial growth. The time interval reported is for that sample in which no bacterial growth was observed after the incubation period.
# Staph. aureus ATCC 6538 = experiment: Bactericidal endpoint (time for complete sterilization), ATCC 6538; assay type: cell-based
# Source text: as §1, §2, §3, §4, §5
# [1] = system: Kleb. pneumoniae ATCC 10031; experiment: Bactericidal endpoint (time for complete sterilization), ATCC 10031; assay type: cell-based
# Source text: as §1, §2, §3, §4, §5
# [2] = Stability in the neat state at 40°C (positive chlorine by thiosulfate titration); assay type: physicochemical
# Source text: ^a Weight of sample analyzed.
# ^b Volume of 10^^-2 N sodium thiosulfate required to titrate
# the sample at time (T).
# ^c Percentage of positive chlorine in the sample analyzed.
# [3] = system: Bord. bronchiseptica ATCC 4617; experiment: Bactericidal endpoint (time for complete sterilization), ATCC 4617; assay type: cell-based
# Source text: as §1, §2, §3, §4, §5
# [4] = system: Pseud. aeruginosa ATCC 9027; experiment: Bactericidal endpoint (time for complete sterilization), ATCC 9027; assay type: cell-based
# Source text: as §1, §2, §3, §4, §5
# E. coli ATCC 10536 = experiment: Bactericidal endpoint (time for complete sterilization), ATCC 10536; assay type: cell-based
# Source text: as §1, §2, §3, §4, §5
# [5] = system: Staph. epidermidis ATCC 12228; experiment: Bactericidal endpoint (time for complete sterilization), ATCC 12228; assay type: cell-based
# Source text: as §1, §2, §3, §4, §5
# [6] = 0.5 M NaH2PO4 pH 7.0, diluent not given, 19.13 × 10^-3 M (6026 ppm)
# [7] = 0.5 M NaH2PO4 pH 710 (so in the source), H2O, 19.75 × 10^-3 M (6221 ppm)
# [8] = 0.5 M NaOAc pH 4.6, H2O, 17.0 × 10^-3 (5355 ppm)
# [9] = 0.5 M NaOAc pH 4.6, Serum, 17.0 × 10^-3 (5355 ppm)
compound,measurement,setting,value
CN1CCC2(CC1)OCC(C)(C)N2Cl,"Antibacterial activity, time, 6501",6501; [6],> 10 min
same,"Antibacterial activity, time, 6501",6501; [7],1 min
same,"Antibacterial activity, time, 6501",6501; [8],0.5 min
same,"Antibacterial activity, time, 6501",6501; [9],1 min
same,"Antibacterial activity, time, 6538",Staph. aureus ATCC 6538; [6],> 10 min
same,"Antibacterial activity, time, 6538",Staph. aureus ATCC 6538; [7],4 min
same,"Antibacterial activity, time, 6538",Staph. aureus ATCC 6538; [8],1 min
same,"Antibacterial activity, time, 6538",Staph. aureus ATCC 6538; [9],6 min
same,"Antibacterial activity, time, 10031",[1]; [6],> 10 min
same,"Antibacterial activity, time, 10031",[1]; [7],1 min
same,"Antibacterial activity, time, 10031",[1]; [8],0.5 min
same,"Antibacterial activity, time, 10031",[1]; [9],1 min
same,%Cl (percentage of positive chlorine in the sample analyzed),[2]; 0 days,10.6%
same,%Cl (percentage of positive chlorine in the sample analyzed),[2]; 1 day,10.2% and 10.3%
same,%Cl (percentage of positive chlorine in the sample analyzed),[2]; 2 days,10.3% and 9.8%
same,%Cl (percentage of positive chlorine in the sample analyzed),[2]; 3 days,9.8% and 10.0%
same,%Cl (percentage of positive chlorine in the sample analyzed),[2]; 4 days,9.4%
same,%Cl (percentage of positive chlorine in the sample analyzed),[2]; 5 days,9.7%
same,%Cl (percentage of positive chlorine in the sample analyzed),[2]; 7 days,9.3% and 9.7%
same,%Cl (percentage of positive chlorine in the sample analyzed),[2]; 10 days,9.8%
same,%Cl (percentage of positive chlorine in the sample analyzed),[2]; 14 days,8.8% and 9.0%
same,%Cl (percentage of positive chlorine in the sample analyzed),[2]; 21 days,9.4%
same,%Cl (percentage of positive chlorine in the sample analyzed),[2]; 28 days,9.4% and 9.1%
same,%Cl (percentage of positive chlorine in the sample analyzed),[2]; 35 days,8.9% and 9.0%
same,%Cl (percentage of positive chlorine in the sample analyzed),[2]; 51 days,8.0%
same,"Antibacterial activity, time, 4617",[3]; [6],> 10 min
same,"Antibacterial activity, time, 4617",[3]; [7],1 min
same,"Antibacterial activity, time, 4617",[3]; [8],0.5 min
same,"Antibacterial activity, time, 4617",[3]; [9],1 min
same,"Antibacterial activity, time, 9027",[4]; [6],> 10 min
same,"Antibacterial activity, time, 9027",[4]; [7],1 min
same,"Antibacterial activity, time, 9027",[4]; [8],0.5 min
same,"Antibacterial activity, time, 9027",[4]; [9],1 min
same,"Antibacterial activity, time, 10536",E. coli ATCC 10536; [6],4 min
same,"Antibacterial activity, time, 10536",E. coli ATCC 10536; [7],1 min
same,"Antibacterial activity, time, 10536",E. coli ATCC 10536; [8],0.5 min
same,"Antibacterial activity, time, 10536",E. coli ATCC 10536; [9],0.5 min
same,"Antibacterial activity, time, 12228",[5]; [6],> 10 min
same,"Antibacterial activity, time, 12228",[5]; [7],4 min
same,"Antibacterial activity, time, 12228",[5]; [8],0.5 min
same,"Antibacterial activity, time, 12228",[5]; [9],2 min
